Measurements reported in patent US20260049076A1, “Tertiary Amine Substituted Bicyclic Compounds Useful as T Cell Activators” (BRISTOL-MYERS SQUIBB COMPANY, priority 2022, published 2026).
pIC50: −log10 of the molar value.

Assays:
human DGKζ = molecular target: T1, human DGKζ (Homo sapiens, UniProt Q13574); test: In vitro DGK inhibition assay, DGKζ liposome (LIPGLO) assay; assay type: biochemical; conditions: read-out: Enzyme Inhibition DGKzeta IC50
T1 construct: TVMV protease cleavage site (C); Hexa-His (C); made in house; host or cells: Sf9 insect cells (baculovirus)
Protocol: (§1) The DGKα and DGKζ reactions were performed using either extruded liposome (DGKα and DGKζ LIPGLO assays) or detergent/lipid micelle substrate (DGKα and DGKζ assays). The reactions were carried out in 50 mM MOPS pH 7.5, 100 mM NaCl, 10 mM MgCl2, 1 μM CaCl2, and 1 mM DTT (assay buffer). The reactions using a detergent/lipid micelle substrate also contained 50 mM octyl B-D-glucopyranoside. The lipid substrate concentrations were 11 mM PS and 1 mM DAG for the detergent/lipid micelle reactions. The lipid substrate concentrations were 2 mM PS, 0.25 mM DAG, and 2.75 mM PC for the extruded liposome reactions (5 mM total lipid). The reactions were carried out in 150 μM ATP The enzyme concentrations for the DGKα and DGKζ were 5 nM
(§2) The compound inhibition studies were carried out as follows: 25 nL (ADPGLO assay) or 50 nL (LIPGLO assay) droplets of each test compound (top concentration 10 mM with 11 point, 3-fold dilution series for each compound) solubilized in DMSO were transferred to wells of a white 1536 well plate (Corning 3725). A 5 mL enzyme/lipid substrate solution at 2× final reaction concentration was prepared by combining 2.5 mL 4× enzyme solution (20 nM DGKα, or DGKζ (prepared as described below) in assay buffer) and 2.5 mL of either 4× liposome or 4× detergent/lipid micelle solution (compositions described below) and incubated at room temperature for 10 minutes. Next, 1 μL 2× enzyme/lipid substrate solution was added to wells containing the test compound and reactions were initiated with the addition of 1 μL 300 uM ATP. The reactions were allowed to proceed for 2 hr (ADPGLO assay) or 1 hr (LIPGLO assay), after which 2 μL Glo Reagent (Promega V9101) was added and incubated for 40 minutes. Next, 4 μL Kinase Detection Reagent was added and incubated for 30 minutes. Luminescence was recorded using an EnVision microplate reader. […] The compounds were evaluated at 11 concentrations to determine IC50.
(§3) The lipid composition was 5 mol % DAG (Avanti 8008110), 40 mol % PS (Avanti 840035P), and 55 mol % PC (Avanti 850457) at a total lipid concentration of 7-8 mg/mL for the liposome solution. The PC, DAG, and PS were dissolved in chloroform, combined, and dried in vacuo to a thin film. The lipids were hydrated to 20 mM in 50 mM MOPS pH 7.5, 100 mM NaCl, 5 mM MgCl2, and were freeze-thawed five times. The lipid suspension was extruded through a 100 nm polycarbonate filter 10-12 times. […] The liposome preparation was stored at 4° C. for as long as four weeks.
as §3, with “15.2” for “7-8”, “the 4×” for “the”, “eleven” for “10-12”
(§4) Human DGK-alpha-TVMV-His-pFBgate and human DGK-zeta-transcript variant-2-TVMV-His-pFBgate baculovirus samples were generated using the Bac-to-Bac baculovirus expression system (Invitrogen) according to the manufacturer's protocol. […] Baculovirus amplification was achieved using infected Sf9 cells at 1:1500 virus/cell ratios, and grown for 65 hours at 27° C. post-transfection.
(§5) The expression scale up for each protein was carried out in the Cellbag 50L WAVE-Bioreactor System 20/50 from GE Healthcare Bioscience. 12 L of 2×10^6 cells/mL Sf9 cells (Expression System, Davis, CA) grown in ESF921 insect medium (Expression System) were infected with virus stock at 1:200 virus/cell ratios, and grown for 66-68 hours at 27° C. post-infection.

human DGKα = molecular target: T2, human DGKα (Homo sapiens, UniProt P23743); test: In vitro DGK inhibition assay, DGKα liposome (LIPGLO) assay; assay type: biochemical; conditions: read-out: Enzyme Inhibition DGKalpha IC50
T2 construct: TVMV protease cleavage site (C); Hexa-His (C); made in house; host or cells: Sf9 insect cells (baculovirus)
Protocol: as §1, §2, §3
as §3, with “15.2” for “7-8”, “the 4×” for “the”, “eleven” for “10-12”
as §4, §5

T1 sequence (Q13574 with tags, fused parts or gaps isoform Q13574-4): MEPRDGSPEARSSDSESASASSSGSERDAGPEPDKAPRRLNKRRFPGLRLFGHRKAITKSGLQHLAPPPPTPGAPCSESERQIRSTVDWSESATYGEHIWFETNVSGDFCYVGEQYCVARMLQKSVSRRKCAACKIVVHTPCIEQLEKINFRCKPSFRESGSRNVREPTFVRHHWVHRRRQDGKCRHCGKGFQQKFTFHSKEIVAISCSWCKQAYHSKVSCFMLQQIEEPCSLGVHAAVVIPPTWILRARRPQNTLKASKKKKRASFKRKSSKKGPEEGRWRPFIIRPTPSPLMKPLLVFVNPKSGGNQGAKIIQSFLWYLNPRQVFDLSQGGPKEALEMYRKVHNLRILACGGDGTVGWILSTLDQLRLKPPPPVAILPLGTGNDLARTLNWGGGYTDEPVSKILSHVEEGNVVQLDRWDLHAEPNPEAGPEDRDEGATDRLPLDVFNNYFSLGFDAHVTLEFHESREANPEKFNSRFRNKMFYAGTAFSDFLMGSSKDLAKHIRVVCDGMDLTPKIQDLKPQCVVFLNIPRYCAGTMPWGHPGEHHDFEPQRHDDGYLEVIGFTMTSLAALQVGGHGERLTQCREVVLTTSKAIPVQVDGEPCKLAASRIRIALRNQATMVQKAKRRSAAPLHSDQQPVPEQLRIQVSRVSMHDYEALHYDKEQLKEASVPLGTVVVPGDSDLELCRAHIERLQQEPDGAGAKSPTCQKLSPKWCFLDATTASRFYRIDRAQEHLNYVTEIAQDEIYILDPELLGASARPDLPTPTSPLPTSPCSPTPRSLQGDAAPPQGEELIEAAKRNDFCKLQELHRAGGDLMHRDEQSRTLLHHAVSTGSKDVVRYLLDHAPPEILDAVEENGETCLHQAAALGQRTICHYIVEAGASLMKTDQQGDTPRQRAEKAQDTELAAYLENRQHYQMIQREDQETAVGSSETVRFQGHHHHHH
T2 sequence (P23743 with tags, fused parts or gaps): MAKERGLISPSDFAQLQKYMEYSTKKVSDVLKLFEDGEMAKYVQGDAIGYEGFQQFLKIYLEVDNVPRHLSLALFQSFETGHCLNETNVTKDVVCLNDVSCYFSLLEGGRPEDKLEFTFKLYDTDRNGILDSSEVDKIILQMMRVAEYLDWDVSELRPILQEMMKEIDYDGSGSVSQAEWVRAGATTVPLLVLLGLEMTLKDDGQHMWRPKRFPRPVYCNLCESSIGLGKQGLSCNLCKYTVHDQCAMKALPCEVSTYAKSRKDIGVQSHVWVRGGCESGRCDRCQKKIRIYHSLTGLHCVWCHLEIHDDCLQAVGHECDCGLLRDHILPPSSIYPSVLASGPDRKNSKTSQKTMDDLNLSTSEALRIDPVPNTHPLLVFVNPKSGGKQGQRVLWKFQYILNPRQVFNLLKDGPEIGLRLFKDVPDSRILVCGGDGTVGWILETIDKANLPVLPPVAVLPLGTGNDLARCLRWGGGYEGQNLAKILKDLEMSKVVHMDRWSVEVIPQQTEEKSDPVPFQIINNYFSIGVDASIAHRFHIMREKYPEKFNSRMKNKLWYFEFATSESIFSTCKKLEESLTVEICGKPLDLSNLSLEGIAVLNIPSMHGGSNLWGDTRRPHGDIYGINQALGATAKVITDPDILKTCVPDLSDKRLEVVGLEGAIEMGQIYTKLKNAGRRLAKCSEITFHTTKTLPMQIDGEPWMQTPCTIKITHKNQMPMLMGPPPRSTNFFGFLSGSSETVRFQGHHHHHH

SMILES | pIC50 (human DGKζ) | pIC50 (human DGKα)
Cn1c(=O)cc(N(CC2CC2)c2cccc(-c3cccc(C(N)=O)c3)c2)c2nc(C#N)ccc21 [Example 104, 3′-((6-cyano-1-methyl-2-oxo-1,2-dihydro-1,5-naphthyridin-4-yl) (cyclopropylmethyl)amino)-[1,1′-biphenyl]-3-carboxamide] | 5.28 | 4.39
Cn1c(=O)cc(N(CC2CC2)c2cccc(-c3cccc(O)c3)c2)c2nc(C#N)ccc21 [Example 99, 8-((cyclopropylmethyl)(3′-hydroxy-[1,1′-biphenyl]-3-yl)amino)-5-methyl-6-oxo-5,6-dihydro-1,5-naphthyridine-2-carbonitrile] | 4.51 | 5.74
Cn1c(=O)cc(N(CC2CC2)c2cccc(-c3ccc(Cl)cc3)c2)c2nc(C#N)ccc21 [Example 71, 8-((4′-chloro-[1,1′-biphenyl]-3-yl)(cyclopropylmethyl)amino)-5-methyl-6-oxo-5,6-dihydro-1,5-naphthyridine-2-carbonitrile] | 4.82 | 6.85
COc1ccc(-c2cccc(N(C)c3nc(=O)n(C)c4ccc(C#N)nc34)c2)cc1 [Example 2, 4-((4′-methoxy-[1,1′-biphenyl]-3-yl)(methyl)amino)-1-methyl-2-oxo-1,2-dihydropyrido[3,2-d]pyrimidine-6-carbonitrile] | < 4.42 | < 4.42
COc1ccccc1-c1cccc(N(CC2CC2)c2cc(=O)n(C)c3ccc(C#N)nc23)c1 [Example 96, 8-((cyclopropylmethyl)(2′-methoxy-[1,1′-biphenyl]-3-yl)amino)-5-methy-6-oxo-5,6-dihydro-1,5-naphthyridine-2-carbonitrile] | 5.27 | 5.54
Cn1c(=O)cc(N(CC2CC2)c2cccc(-c3ccc(CNS(C)(=O)=O)cc3)c2)c2nc(C#N)ccc21 [Example 102, N-((3′-((6-cyano-1-methyl-2-oxo-1,2-dihydro-1,5-naphthyridin-4-yl)(cyclopropylmethyl)amino)-[1,1′-biphenyl]-4-yl)methyl)methanesulfonamide] | 5.46 | 6.74
Cn1c(=O)cc(N(CC2CC2)c2ccc(OC(F)(F)F)cc2)c2nc(C#N)ccc21 [Example 41, 8-((cyclopropylmethyl)(4-(trifluoromethoxy)phenyl)amino)-5-methyl-6-oxo-5,6-dihydro-1,5-naphthyridine-2-carbonitrile] | 5.52 | 5.08
Cn1c(=O)c(C#N)c(N(CC2CC2)c2ccc(C3CC3)cc2)c2nc(C#N)ccc21 [Example 59, 8-((cyclopropylmethyl)(4-cyclopropylphenyl)amino)-5-methyl-6-oxo-5,6-dihydro-1,5-naphthyridine-2,7-dicarbonitrile] | 5.18 | < 4.43
Cn1c(=O)cc(N(CC2CC2)c2cccc(-c3cccc(CNS(C)(=O)=O)c3)c2)c2nc(C#N)ccc21 [Example 105, N-((3′-((6-cyano-1-methyl-2-oxo-1,2-dihydro-1,5-naphthyridin-4-yl) (cyclopropylmethyl)amino)-[1,1′-biphenyl]-3-yl)methyl)methanesulfonamide] | 5.36 | 4.48
CCN(c1ccc(OC)cc1)c1cc(=O)n(C)c2ccc(C#N)nc12 [Example 34, 8-(ethyl(4-methoxyphenyl)amino)-5-methyl-6-oxo-5,6-dihydro-1,5-naphthyridine-2-carbonitrile] | 5.60 | 5.19
COc1ccc(-c2cccc(N(CC3CC3)c3cc(=O)n(C)c4ccc(C#N)nc34)c2)cc1 [Example 91, 8-((cyclopropylmethyl)(4′-methoxy-[1,1′-biphenyl]-3-yl)amino)-5-methyl-6-oxo-5,6-dihydro-1,5-naphthyridine-2-carbonitrile] | 5.49 | 7.64
COc1cc(-c2cccc(N(CC3CC3)c3cc(=O)n(C)c4ccc(C#N)nc34)c2)ccn1 [Example 110, 8-((cyclopropylmethyl)(3-(2-methoxypyridin-4-yl)phenyl)amino)-5-methyl-6-oxo-5,6-dihydro-1,5-naphthyridine-2-carbonitrile] | 5.14 | 4.92
COc1cc(-c2ccc(N(CC3CC3)c3cc(=O)n(C)c4ccc(C#N)nc34)cc2)ccn1 [Example 90, 8-((cyclopropylmethyl)(4-(2-methoxypyridin-4-yl)phenyl)amino)-5-methyl-6-oxo-5,6-dihydro-1,5-naphthyridine-2-carbonitrile] | 5.30 | 4.92
Cn1c(=O)cc(N(CC2CC2)c2cccc(-c3ccccc3)c2)c2nc(C#N)ccc21 [Example 70, 8-([1,1′-biphenyl]-3-yl(cyclopropylmethyl)amino)-5-methyl-6-oxo-5,6-dihydro-1,5-naphthyridine-2-carbonitrile] | 4.57 | 6.77
Cn1c(=O)cc(N(CC2CC2)c2cccc(OC(F)(F)F)c2)c2nc(C#N)ccc21 [Example 43, 8-((cyclopropylmethyl)(3-(trifluoromethoxy)phenyl)amino)-5-methyl-6-oxo-5,6-dihydro-1,5-naphthyridine-2-carbonitrile] | 4.59 | 5.96
CN(c1cccc(-c2ccc(C3CC3)cc2)c1)c1cc(=O)n(C)c2ccc(C#N)nc12 [Example 4, 8-((4′-cyclopropyl-[1,1′-biphenyl]-3-yl)(methyl)amino)-5-methyl-6-oxo-5,6-dihydro-1,5-naphthyridine-2-carbonitrile] | < 4.42 | 7.31
COc1ccc(N(CC2CC2)c2cc(=O)n(C)c3ccc(C#N)nc23)cc1 [Example 36, 8-((cyclopropylmethyl)(4-methoxyphenyl)amino)-5-methyl-6-oxo-5,6-dihydro-1,5-naphthyridine-2-carbonitrile] | 6.10 | 6.05
Cn1c(=O)cc(N(CC2CC2)c2ccc(-c3cccc(C(N)=O)c3)cc2)c2nc(C#N)ccc21 [Example 84, 4′-((6-cyano-1-methyl-2-oxo-1,2-dihydro-1,5-naphthyridin-4-yl)(cyclopropylmethyl)amino)-[1,1′-biphenyl]-3-carboxamide] | 5.12 | 4.74
CN(c1ccc(Cl)cc1)c1cc(=O)n(C)c2ccc(C#N)nc12 [Example 29, 8-((4-chlorophenyl)(methyl)amino)-5-methyl-6-oxo-5,6-dihydro-1,5-naphthyridine-2-carbonitrile] | 4.77 | 6.35
Cn1c(=O)cc(N(CC2CC2)c2cccc(-c3cccnc3)c2)c2nc(C#N)ccc21 [Example 106, 8-((cyclopropylmethyl)(3-(pyridin-3-yl)phenyl)amino)-5-methyl-6-oxo-5,6-dihydro-1,5-naphthyridine-2-carbonitrile] | 5.66 | 6.18
CN(C)c1ccc(-c2ccc(N(CC3CC3)c3cc(=O)n(C)c4ccc(C#N)nc34)cc2)cc1 [Example 87, 8-((cyclopropylmethyl)(4′-(dimethylamino)-[1,1′-biphenyl]-4-yl)amino)-5-methyl-6-oxo-5,6-dihydro-1,5-naphthyridine-2-carbonitrile] | 5.70 | 5.96
CN(c1ccc(F)cc1)c1cc(=O)n(C)c2ccc(C#N)nc12 [Example 23, 8-((4-fluorophenyl)(methyl)amino)-5-methyl-6-oxo-5,6-dihydro-1,5-naphthyridine-2-carbonitrile] | 5.31 | 6.96
